Columns and labels:
[1] = target: T1, M1 muscarinic receptor (Homo sapiens, UniProt P11229); assay: Functional mobilization of intracellular calcium (FLIPR), M1-CHO cells; format: cell-based; conditions: for Emax: 100% efficacy is the maximum response obtained with the Carbachol control; for M1 Activity: CHO cells expressing M1, calcium mobilization
T1 construct: expressed in transfected cells; host or cells: CHO (M1-CHO)
T1 sequence (P11229 1-460): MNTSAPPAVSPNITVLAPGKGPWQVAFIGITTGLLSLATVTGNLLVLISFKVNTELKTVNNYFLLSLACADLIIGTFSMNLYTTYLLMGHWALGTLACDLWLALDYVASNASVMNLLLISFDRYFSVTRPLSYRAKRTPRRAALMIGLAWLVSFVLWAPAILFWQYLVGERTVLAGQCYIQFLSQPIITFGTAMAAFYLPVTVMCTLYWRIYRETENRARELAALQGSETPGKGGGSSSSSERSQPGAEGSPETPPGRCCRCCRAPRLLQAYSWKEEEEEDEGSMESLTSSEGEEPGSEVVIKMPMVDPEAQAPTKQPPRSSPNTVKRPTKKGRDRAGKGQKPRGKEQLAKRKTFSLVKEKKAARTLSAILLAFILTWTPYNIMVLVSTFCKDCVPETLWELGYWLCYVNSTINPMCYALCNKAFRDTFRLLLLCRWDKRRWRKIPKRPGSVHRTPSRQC
Method: (§1) Functional Mobilization of Intracellular Calcium to Determine Muscarinic Receptor Activity:
(§2) CHO cells expressing muscarinic receptors (M1 to M5) are grown as monolayers in tissue culture flasks at 37° C. in a humidified atmosphere containing 5% CO2 and passaged every 3-5 days. The growth media is Dulbecco's modified eagles medium (DMEM, Gibco Cat#12430-054), containing 25 mM Hepes and supplemented with Fetal Bovine Serum (Hyclone, cat# SH30071.03), 0.1 mM of MEM non-essential amino acids (GIBCO, Cat#11140-050), 1 mM MEM Sodium Pyruvate (GIBCO Cat#11360-070) and 100 units/ml of Penicillin G and 100 μg/ml of Streptomycin (GIBCO Cat#15140-122). The recombinant muscarinic receptor cell lines are grown under antibiotic pressure with media containing 25 μg/ml zeocin and 500 μg/ml G418 (M1-CHO), 4 μg/ml puromycin, 50 μg/ml zeocin and 2.5 μg/ml blasticidin (M2 and M4-CHO) or 50 μg/ml zeocin and 4 μg/ml puromycin (M3 and M5-CHO).
(§3) Cells are harvested at 80-90% confluence using Versene (GIBCO Cat#15040-066), collected by centrifugation and seeded 18-24 hours prior to running the calcium assay at a density of 5,000-10,000 cells/well in […], clear-bottomed 384-well plates (BD Biocoat, poly-D-lysine, Cat#356663). The day of the experiment, the cells are washed with a plate washer (Bioteck Instrunents, ELX 405) using bath 1 buffer (140-mM NaCl, 4.5-mM KCl, 2-mM CaCl2, 1-mM MgCl2, 10-mM Hepes-Na, 10-mM Glucose, pH 7.4, with NaOH) containing 1 mM Probenecid. Next, the calcium dye Fluo-3 (25 μl/well of Fluo-3 AM at 4 μM, Molecular Probes F-1241, in Bath 1 buffer containing 1 mM Probenecid) is added to the 25 μl of Bath 1 remaining in each well after the plate wash and the dye is loaded at 37° C. in the tissue culture incubator for 60-90 min. The fluorescent dye is removed using the plate washer with Bath 1 containing 1 mM Probenecid, leaving 25 μl/well of this solution after the wash. Alternatively, cells can be loaded with the calcium indicator from Molecular Devices (Calcium 3 Assay Reagents, Cat # R7181) adding 5 μl of a 5× solution dye in Bath 1 containing 1 mM Probenecid (10 ml per dye flask cat# R7182 to generate a solution 20×) to 20 μl of the same buffer. After loading for 60 min, the experiment can be run without having to remove the dye.
(§4) Compounds are prepared at a 2× fold concentration in a 96-well plate (round bottom, Costar Corning cat#3656), by reconstituting the pre-spotted compounds in bath 1 containing 1 mM probenecid. The final concentration DMSO is 0.5%, and the amount of DMSO is normalized across the assay plate. To determine an agonist action of the compounds on muscarinic receptors, the reconstituted compounds are added (25 μl compound/well) to the cell assay plate (containing 25 μl/well) using the multi-channel robotic system of the FLIPR 3 Instrument (Molecular Devices, Sunnyvale, Calif.). To determine a functional inhibitory action of the compounds on muscarinic receptors, the reconstituted compounds are added (25 μl compound/well) to the assay plate and pre-incubated for 15 min prior to adding 25 μl of Carbachol at 3× the EC80 for each muscarinic subtype. Alternatively, the compounds can be co-applied simultaneously with the agonist. In both assay modes, the fluorescence is recorded for 60 sec (excitation wavelength is […] and emission wavelength 540 nm) using the FLIPR 3 instrument.
(§5) The potency, efficacy and selectivity of the muscarinic compounds were evaluated by screening the compound activity across the whole family (M1 to M5 cells). Compounds were also screened for activity on other proteins such as other GPCRs and ion channels to determine selectivity on M4 receptors.
(§6) Examples of activities and efficacies of the muscarinic compounds of formulae (I, Ia, Ib, Ic, Id, and Ie) on modulating M1 and M4 receptors are shown below in Table 4. […]

[2] = target: T2, M4 muscarinic receptor (Homo sapiens, UniProt P08173); assay: Functional mobilization of intracellular calcium (FLIPR), M4-CHO cells; format: cell-based; conditions: for Emax: 100% efficacy is the maximum response obtained with the Carbachol control; for M4 Activity: CHO cells expressing M4, calcium mobilization
T2 construct: expressed in transfected cells; host or cells: CHO (M4-CHO)
T2 sequence (P08173 1-479): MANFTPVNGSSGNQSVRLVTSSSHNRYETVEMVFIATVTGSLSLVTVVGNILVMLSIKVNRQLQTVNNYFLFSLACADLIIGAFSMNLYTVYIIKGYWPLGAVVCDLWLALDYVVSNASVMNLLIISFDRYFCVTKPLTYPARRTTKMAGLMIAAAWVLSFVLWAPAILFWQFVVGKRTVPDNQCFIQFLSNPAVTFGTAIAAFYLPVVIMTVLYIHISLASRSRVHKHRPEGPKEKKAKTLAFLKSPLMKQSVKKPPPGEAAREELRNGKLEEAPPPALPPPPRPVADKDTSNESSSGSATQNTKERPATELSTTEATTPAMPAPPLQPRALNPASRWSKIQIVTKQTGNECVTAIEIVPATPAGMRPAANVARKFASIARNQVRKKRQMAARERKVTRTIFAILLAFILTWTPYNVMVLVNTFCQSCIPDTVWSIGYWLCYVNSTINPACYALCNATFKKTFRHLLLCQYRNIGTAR
Method: as §1, §2, §3, §4, §5, §6

## CC#CCOC(=O)N1C2CCC1CC(N1CCC3(CCN(C(=O)N(C)C)c4ccccc43)CC1)C2 (centres unmarked) [compound 29]
[1]
  Emax: > 100%
  M1 Activity: +++ (activity was measured to be less than 2.0 μM)
[2]
  Emax: 25 to 100%
  M4 Activity: +++ (activity was measured to be less than 2.0 μM)

## CN(C)C(=O)N1CCC2(CCN(C3CC4CCC(C3)N4c3cnccn3)CC2)c2ccccc21 (centres unmarked) [compound 30]
[1]
  Emax: 25 to 100%
  M1 Activity: +++ (activity was measured to be less than 2.0 μM)
[2]
  Emax: 25 to 100%
  M4 Activity: +++ (activity was measured to be less than 2.0 μM)

## Cc1nsc(N2C3CCC2CC(N2CCC4(CCN(C(=O)N(C)C)c5ccccc54)CC2)C3)n1 (centres unmarked) [compound 31]
[1]
  Emax: 25 to 100%
  M1 Activity: +++ (activity was measured to be less than 2.0 μM)
[2]
  Emax: 25 to 100%
  M4 Activity: +++ (activity was measured to be less than 2.0 μM)

## CN(C)C(=O)N1CCC2(CCN(C3CCNCC3)CC2)c2ccccc21 [compound 33]
[1]
  Emax: < 25%
  M1 Activity: + (activity was measured to be greater than 10.0 μM)
[2]
  Emax: < 25%
  M4 Activity: + (activity was measured to be greater than 10.0 μM)

## CC(=O)N1CCC2(CCN(C3CCNCC3)CC2)c2ccccc21 [compound 34]
[1]
  Emax: < 25%
  M1 Activity: + (activity was measured to be greater than 10.0 μM)
[2]
  Emax: < 25%
  M4 Activity: ++ (activity was measured to be from 2.0 μM to 10.0 μM)

## CN(C)C(=O)N1CCC2(CCN(C3CCN(c4nccs4)CC3)CC2)c2ccccc21 [compound 35]
[1]
  Emax: < 25%
  M1 Activity: ++ (activity was measured to be from 2.0 μM to 10.0 μM)
[2]
  Emax: < 25%
  M4 Activity: ++ (activity was measured to be from 2.0 μM to 10.0 μM)

## CC(=O)N1CCC2(CCN(C3CCN(c4ncc(C)s4)CC3)CC2)c2ccccc21 [compound 37]
[1]
  Emax: < 25%
  M1 Activity: + (activity was measured to be greater than 10.0 μM)
[2]
  Emax: < 25%
  M4 Activity: + (activity was measured to be greater than 10.0 μM)

## COC(=O)N1CCC(N2CCC3(CC2)CN(C(=O)N(C)C)c2ccccc23)CC1 [compound 38]
[1]
  Emax: 25 to 100%
  M1 Activity: ++ (activity was measured to be from 2.0 μM to 10.0 μM)
[2]
  Emax: 25 to 100%
  M4 Activity: +++ (activity was measured to be less than 2.0 μM)

## CCCOC(=O)N1CCC(N2CCC3(CC2)CN(C(=O)N(C)C)c2ccccc23)CC1 [compound 40]
[1]
  Emax: 25 to 100%
  M1 Activity: +++ (activity was measured to be less than 2.0 μM)
[2]
  Emax: 25 to 100%
  M4 Activity: +++ (activity was measured to be less than 2.0 μM)

## CC(C)OC(=O)N1CCC(N2CCC3(CC2)CN(C(=O)N(C)C)c2ccccc23)CC1 [compound 41]
[1]
  Emax: 25 to 100%
  M1 Activity: +++ (activity was measured to be less than 2.0 μM)
[2]
  Emax: 25 to 100%
  M4 Activity: +++ (activity was measured to be less than 2.0 μM)

## CN(C)C(=O)N1CC2(CCN(C3CCN(C(=O)OCC(F)F)CC3)CC2)c2ccccc21 [compound 42]
[1]
  Emax: 25 to 100%
  M1 Activity: +++ (activity was measured to be less than 2.0 μM)
[2]
  Emax: 25 to 100%
  M4 Activity: +++ (activity was measured to be less than 2.0 μM)

## COCCOC(=O)N1CCC(N2CCC3(CC2)CN(C(=O)N(C)C)c2ccccc23)CC1 [compound 43]
[1]
  Emax: 25 to 100%
  M1 Activity: +++ (activity was measured to be less than 2.0 μM)
[2]
  Emax: 25 to 100%
  M4 Activity: +++ (activity was measured to be less than 2.0 μM)

## C#CCCOC(=O)N1CCC(N2CCC3(CC2)CN(C(=O)N(C)C)c2ccccc23)CC1 [compound 44]
[1]
  Emax: 25 to 100%
  M1 Activity: +++ (activity was measured to be less than 2.0 μM)
[2]
  Emax: 25 to 100%
  M4 Activity: +++ (activity was measured to be less than 2.0 μM)

## COC(=O)N1C2CCC1CC(N1CCC3(CC1)CN(C(=O)N(C)C)c1ccccc13)C2 (centres unmarked) [compound 45]
[1]
  Emax: 25 to 100%
  M1 Activity: ++ (activity was measured to be from 2.0 μM to 10.0 μM)
[2]
  Emax: 25 to 100%
  M4 Activity: +++ (activity was measured to be less than 2.0 μM)

## CCOC(=O)N1C2CCC1CC(N1CCC3(CC1)CN(C(=O)N(C)C)c1ccccc13)C2 (centres unmarked) [compound 46]
[1]
  Emax: 25 to 100%
  M1 Activity: +++ (activity was measured to be less than 2.0 μM)
[2]
  Emax: 25 to 100%
  M4 Activity: +++ (activity was measured to be less than 2.0 μM)

## CCCOC(=O)N1C2CCC1CC(N1CCC3(CC1)CN(C(=O)N(C)C)c1ccccc13)C2 (centres unmarked) [compound 47]
[1]
  Emax: 25 to 100%
  M1 Activity: +++ (activity was measured to be less than 2.0 μM)
[2]
  Emax: 25 to 100%
  M4 Activity: +++ (activity was measured to be less than 2.0 μM)

## CC(C)OC(=O)N1C2CCC1CC(N1CCC3(CC1)CN(C(=O)N(C)C)c1ccccc13)C2 (centres unmarked) [compound 48]
[1]
  Emax: 25 to 100%
  M1 Activity: +++ (activity was measured to be less than 2.0 μM)
[2]
  Emax: 25 to 100%
  M4 Activity: +++ (activity was measured to be less than 2.0 μM)

## CN(C)C(=O)N1CC2(CCN(C3CC4CCC(C3)N4C(=O)OCC(F)F)CC2)c2ccccc21 (centres unmarked) [compound 49]
[1]
  Emax: 25 to 100%
  M1 Activity: +++ (activity was measured to be less than 2.0 μM)
[2]
  Emax: 25 to 100%
  M4 Activity: +++ (activity was measured to be less than 2.0 μM)

## COCCOC(=O)N1C2CCC1CC(N1CCC3(CC1)CN(C(=O)N(C)C)c1ccccc13)C2 (centres unmarked) [compound 50]
[1]
  Emax: 25 to 100%
  M1 Activity: +++ (activity was measured to be less than 2.0 μM)
[2]
  Emax: 25 to 100%
  M4 Activity: +++ (activity was measured to be less than 2.0 μM)

## C#CCCOC(=O)N1C2CCC1CC(N1CCC3(CC1)CN(C(=O)N(C)C)c1ccccc13)C2 (centres unmarked) [compound 51]
[1]
  Emax: 25 to 100%
  M1 Activity: +++ (activity was measured to be less than 2.0 μM)
[2]
  Emax: 25 to 100%
  M4 Activity: +++ (activity was measured to be less than 2.0 μM)

— patent US8263605B2, “Modulators of muscarinic receptors” (Vertex Pharmaceutical Incorporated, priority 2006, dated 2012)
